Laboratory results: PubChem BioAssay AID256 (DTP/NCI, 2004)
Where “and” joins values, the source holds several entries; their conditions need not be identical. Equal values may be shown once. Inconclusive results and toxic doses are left out.

Test system: CD2F1 mice, L1210 leukemia ip, survival T/C
Experiment: NCI In Vivo Anticancer Drug Screen. Data for tumor model L1210 Leukemia (intraperitoneal) in CD2F1 (CDF1) mice
Conditions: higher = longer survival
How it was run: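 Transplantable tumor in mice; compound-treated vs vehicle-treated groups. Read-out = treated/control ratio of the measured endpoint.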

[1] = endpoint: mean survival time, dose: 12.5 mg/kg/injection, schedule: Q01DX009 (ip), vehicle: saline
[2] = endpoint: mean survival time, dose: 25.0 mg/kg/injection, schedule: Q01DX009 (ip), vehicle: saline with Tween-80
[3] = endpoint: mean survival time, dose: 25.0 mg/kg/injection, schedule: Q01DX009 (ip), vehicle: saline
[4] = endpoint: mean survival time, dose: 50.0 mg/kg/injection, schedule: Q01DX009 (ip), vehicle: saline with Tween-80
[5] = endpoint: mean survival time, dose: 100.0 mg/kg/injection, schedule: Q01DX009 (ip), vehicle: saline with Tween-80
[6] = endpoint: mean survival time, dose: 200.0 mg/kg/injection, schedule: Q01DX009 (ip), vehicle: saline with Tween-80
[7] = endpoint: mean survival time, dose: 400.0 mg/kg/injection, schedule: Q01DX009 (ip), vehicle: saline with Tween-80
[8] = endpoint: mean survival time, dose: 100.0 mg/kg/injection, schedule: Q04DX003 (ip), vehicle: saline with Tween-80
[9] = endpoint: mean survival time, dose: 200.0 mg/kg/injection, schedule: Q04DX003 (ip), vehicle: saline with Tween-80
[10] = endpoint: mean survival time, dose: 400.0 mg/kg/injection, schedule: Q04DX003 (ip), vehicle: saline with Tween-80
[11] = endpoint: mean survival time, dose: 100.0 mg/kg/injection, schedule: Q01DX001 (ip), vehicle: Klucel (hydroxypropylcellulose) (HPC)
[12] = endpoint: mean survival time, dose: 200.0 mg/kg/injection, schedule: Q01DX001 (ip), vehicle: Klucel (hydroxypropylcellulose) (HPC)
[13] = endpoint: mean survival time, dose: 400.0 mg/kg/injection, schedule: Q01DX001 (ip), vehicle: Klucel (hydroxypropylcellulose) (HPC)

SMILES: O=Cc1ccc(O)c(O)c1
- T/C [1]: 93 % of control
- T/C [2]: 106 % of control
- T/C [3]: 98 % of control
- T/C [4]: 106 % of control
- T/C (endpoint: mean survival time, dose: 50.0 mg/kg/injection, schedule: Q01DX009 (ip), vehicle: saline): 98 % of control
- T/C [5]: 114 % of control and 102 % of control
- T/C (endpoint: mean survival time, dose: 100.0 mg/kg/injection, schedule: Q01DX009 (ip), vehicle: saline): 107 % of control
- T/C [6]: 109 % of control
- T/C (endpoint: mean survival time, dose: 200.0 mg/kg/injection, schedule: Q01DX009 (ip), vehicle: saline): 116 % of control
- T/C [7]: 117 % of control

SMILES: C=CCCCCCCCCC(=O)NCC[N+](C)(C)C
- T/C (endpoint: mean survival time, dose: 6.25 mg/kg/injection, schedule: Q01DX009 (ip), vehicle: saline): 104 % of control
- T/C (endpoint: mean survival time, dose: 6.25 mg/kg/injection, schedule: Q04DX003 (ip), vehicle: saline): 96 % of control
- T/C [1]: 101 % of control
- T/C (endpoint: mean survival time, dose: 12.5 mg/kg/injection, schedule: Q04DX003 (ip), vehicle: saline): 97 % of control
- T/C [3]: 106 % of control
- T/C (endpoint: mean survival time, dose: 25.0 mg/kg/injection, schedule: Q04DX003 (ip), vehicle: saline): 102 % of control

SMILES: CN(Cc1ccc(Cl)cc1)N=Nc1ccc(C#N)cc1
- T/C [5]: 98 % of control
- T/C [6]: 107 % of control
- T/C [7]: 93 % of control

SMILES: O=C(c1ccccc1)c1cn(C2CCCCC2)c(-c2ccccc2)c1NC1CCCCC1
- T/C [8]: 87 % of control
- T/C [9]: 87 % of control
- T/C [10]: 94 % of control

SMILES: C/C(CCC(=O)O)=N\NC(N)=O
- T/C [5]: 97 % of control
- T/C [8]: 95 % of control
- T/C [6]: 97 % of control
- T/C [9]: 90 % of control
- T/C [7]: 93 % of control

SMILES: O=C1CC(C(=O)O)C2(CCCCCC2)O1 (stereo unspecified)
- T/C (endpoint: median survival time, dose: 12.5 mg/kg/injection, schedule: Q04DX003 (ip), vehicle: saline with Tween-80): 90 % of control
- T/C (endpoint: median survival time, dose: 25.0 mg/kg/injection, schedule: Q04DX003 (ip), vehicle: saline with Tween-80): 90 % of control
- T/C (endpoint: median survival time, dose: 50.0 mg/kg/injection, schedule: Q04DX003 (ip), vehicle: saline with Tween-80): 100 % of control

SMILES: O=S1(=O)Cc2c(Br)c(Br)c(Br)c(Br)c2C1
- T/C (endpoint: mean survival time, dose: 12.5 mg/kg/injection, schedule: Q01DX009 (ip), vehicle: saline with Tween-80): 90 % of control
- T/C [2]: 88 % of control
- T/C [4]: 86 % of control
- T/C [8]: 101 % of control
- T/C [9]: 110 % of control
- T/C [10]: 96 % of control

SMILES: COc1cc(/C=N\NC(=O)CC#N)cc(OC)c1OC
- T/C [8]: 94 % of control
- T/C [9]: 98 % of control

SMILES: Cc1ccc2cc3c(cc2c1C)sc1ccccc13
- T/C (endpoint: mean survival time, dose: 8.8 mg/kg/injection, schedule: Q04DX003 (ip), vehicle: other): 108 % of control
- T/C (endpoint: mean survival time, dose: 17.5 mg/kg/injection, schedule: Q04DX003 (ip), vehicle: other): 115 % of control
- T/C (endpoint: mean survival time, dose: 35.0 mg/kg/injection, schedule: Q04DX003 (ip), vehicle: other): 108 % of control
- T/C (endpoint: mean survival time, dose: 70.0 mg/kg/injection, schedule: Q04DX003 (ip), vehicle: other): 97 % of control
- T/C (endpoint: mean survival time, dose: 140.0 mg/kg/injection, schedule: Q04DX003 (ip), vehicle: other): 93 % of control

SMILES: O=C(O)c1ccccc1C(=O)Nc1nccs1
- T/C (endpoint: mean survival time, dose: 50.0 mg/kg/injection, schedule: Q01DX009 (ip), vehicle: Klucel (hydroxypropylcellulose) (HPC)): 97 % of control
- T/C (endpoint: mean survival time, dose: 100.0 mg/kg/injection, schedule: Q01DX009 (ip), vehicle: Klucel (hydroxypropylcellulose) (HPC)): 105 % of control
- T/C (endpoint: mean survival time, dose: 200.0 mg/kg/injection, schedule: Q01DX009 (ip), vehicle: Klucel (hydroxypropylcellulose) (HPC)): 101 % of control

SMILES: Cc1cc(N(CCCl)CCCl)ccc1C1N(Cc2ccc(N(C)C)cc2)CCCN1Cc1ccc(N(C)C)cc1
- T/C [5]: 101 % of control
- T/C [8]: 98 % of control
- T/C [6]: 101 % of control
- T/C [9]: 101 % of control
- T/C [7]: 108 % of control
- T/C [10]: 108 % of control

SMILES: CN(Cc1ccccc1)/N=N/c1nc[nH]c1C(N)=O
- T/C (endpoint: mean survival time, dose: 4.0 mg/kg/injection, schedule: Q01DX009 (ip), vehicle: Klucel (hydroxypropylcellulose) (HPC)): 98 % of control
- T/C (endpoint: mean survival time, dose: 8.0 mg/kg/injection, schedule: Q01DX009 (ip), vehicle: Klucel (hydroxypropylcellulose) (HPC)): 98 % of control
- T/C (endpoint: mean survival time, dose: 16.1 mg/kg/injection, schedule: Q01DX009 (ip), vehicle: Klucel (hydroxypropylcellulose) (HPC)): 102 % of control
- T/C (endpoint: mean survival time, dose: 32.2 mg/kg/injection, schedule: Q01DX009 (ip), vehicle: Klucel (hydroxypropylcellulose) (HPC)): 106 % of control
- T/C (endpoint: mean survival time, dose: 129.0 mg/kg/injection, schedule: Q01DX009 (ip), vehicle: Klucel (hydroxypropylcellulose) (HPC)): 95 % of control
- T/C (endpoint: mean survival time, dose: 258.0 mg/kg/injection, schedule: Q01DX009 (ip), vehicle: Klucel (hydroxypropylcellulose) (HPC)): 70 % of control
- T/C (endpoint: median survival time, dose: 8.0 mg/kg/injection, schedule: Q03HX016 (ip), vehicle: saline with Tween-80): 106 % of control
- T/C (endpoint: median survival time, dose: 8.0 mg/kg/injection, schedule: Q03HX024 (ip), vehicle: saline with Tween-80): 115 % of control
- T/C (endpoint: median survival time, dose: 16.0 mg/kg/injection, schedule: Q03HX016 (ip), vehicle: saline with Tween-80): 112 % of control
- T/C (endpoint: median survival time, dose: 16.0 mg/kg/injection, schedule: Q03HX024 (ip), vehicle: saline with Tween-80): 124 % of control
- T/C (endpoint: median survival time, dose: 32.0 mg/kg/injection, schedule: Q03HX016 (ip), vehicle: saline with Tween-80): 123 % of control
- T/C (endpoint: median survival time, dose: 64.0 mg/kg/injection, schedule: Q04DX003 (ip), vehicle: saline with Tween-80): 116 % of control
- T/C (endpoint: median survival time, dose: 64.0 mg/kg/injection, schedule: Q08DX002 (ip), vehicle: saline with Tween-80): 105 % of control
- T/C (endpoint: median survival time, dose: 128.0 mg/kg/injection, schedule: Q04DX003 (ip), vehicle: saline with Tween-80): 123 % of control
- T/C (endpoint: median survival time, dose: 128.0 mg/kg/injection, schedule: Q08DX002 (ip), vehicle: saline with Tween-80): 112 % of control
- T/C (endpoint: median survival time, dose: 256.0 mg/kg/injection, schedule: Q01DX009 (ip), vehicle: saline with Tween-80): 120 % of control
- T/C (endpoint: median survival time, dose: 256.0 mg/kg/injection, schedule: Q08DX002 (ip), vehicle: saline with Tween-80): 112 % of control
- T/C (endpoint: median survival time, dose: 512.0 mg/kg/injection, schedule: Q08DX002 (ip), vehicle: saline with Tween-80): 156 % of control

SMILES: C(=C\c1nccc2c1[nH]c1ccccc12)/c1ccccc1
- T/C [8]: 105 % of control
- T/C [9]: 100 % of control
- T/C [10]: 105 % of control

SMILES: COc1ccc(CCN(C=O)c2ccc(OC)c(OC)c2)cc1OC
- T/C (endpoint: mean survival time, dose: 12.5 mg/kg/injection, schedule: Q01DX009 (ip), vehicle: water): 96 % of control
- T/C (endpoint: mean survival time, dose: 25.0 mg/kg/injection, schedule: Q01DX009 (ip), vehicle: water): 98 % of control
- T/C (endpoint: mean survival time, dose: 50.0 mg/kg/injection, schedule: Q01DX009 (ip), vehicle: water): 98 % of control
- T/C (endpoint: mean survival time, dose: 100.0 mg/kg/injection, schedule: Q01DX009 (ip), vehicle: water): 100 % of control
- T/C (endpoint: mean survival time, dose: 200.0 mg/kg/injection, schedule: Q01DX009 (ip), vehicle: water): 100 % of control

SMILES: C=Cc1cc(OC)c2c(c1)c(=O)oc1c2cc(OC)c2c(O)ccc(C3OC(C)C(O)C(C)(O)C3O)c21 (stereo unspecified)
- T/C (endpoint: median survival time, dose: 5.0 mg/kg/injection, schedule: Q01DX009 (ip), vehicle: DMSO): 107 % of control
- T/C (endpoint: median survival time, dose: 10.0 mg/kg/injection, schedule: Q01DX009 (ip), vehicle: DMSO): 116 % of control and 111 % of control
- T/C (endpoint: median survival time, dose: 10.0 mg/kg/injection, schedule: Q01DX009 (ip), vehicle: other): 118 % of control
- T/C (endpoint: median survival time, dose: 20.0 mg/kg/injection, schedule: Q01DX009 (ip), vehicle: DMSO): 116 % of control and 122 % of control
- T/C (endpoint: median survival time, dose: 80.0 mg/kg/injection, schedule: Q01DX009 (ip), vehicle: DMSO): 155 % of control
- T/C (endpoint: median survival time, dose: 160.0 mg/kg/injection, schedule: Q01DX009 (ip), vehicle: DMSO): 120 % of control
- T/C (endpoint: median survival time, dose: 160.0 mg/kg/injection, schedule: Q01DX009 (ip), vehicle: other): 113 % of control

SMILES: C=C1C(=O)OC2(C)C(C)=C(C)C12C (stereo unspecified)
- T/C (endpoint: mean survival time, dose: 100.0 mg/kg/injection, schedule: Q04DX003 (ip), vehicle: saline): 101 % of control
- T/C (endpoint: mean survival time, dose: 200.0 mg/kg/injection, schedule: Q04DX003 (ip), vehicle: saline): 112 % of control
- T/C (endpoint: mean survival time, dose: 400.0 mg/kg/injection, schedule: Q04DX003 (ip), vehicle: saline): 108 % of control

SMILES: CCCCCCCCCCCCCCCCCCN=C(N)N
- T/C [11]: 103 % of control
- T/C [12]: 96 % of control
- T/C [13]: 88 % of control

SMILES: COc1ccccc1NC(=S)N(C)C
- T/C [4]: 98 % of control
- T/C [5]: 101 % of control
- T/C [6]: 98 % of control

SMILES: N#CCCN1C(=O)CCC1=O
- T/C [5]: 97 % of control
- T/C [8]: 95 % of control
- T/C [6]: 95 % of control
- T/C [9]: 97 % of control
- T/C [7]: 92 % of control
- T/C [10]: 95 % of control

SMILES: CNc1ccc(CSc2ccccc2)cc1
- T/C [11]: 96 % of control
- T/C [12]: 96 % of control
- T/C [13]: 87 % of control

SMILES: ClC(Cl)c1c2c(cc3c1CCCC3)CCCC2
- T/C [5]: 113 % of control
- T/C [6]: 116 % of control
- T/C [7]: 102 % of control
